In test [1] the test system is Rattus norvegicus. The experiment in a line: Antihypertensive activity was evaluated in spontaneously hypertensive rat model with base line systolic pressure of 189 mmHg by the indirect tail-cuff method at an oral screening dose of 50 mg/kg. It is filed as functional, Blood.
The test system of test [2] is Rattus norvegicus. The test is described as follows: Antihypertensive activity was evaluated in spontaneously hypertensive rat model with base line systolic pressure of 174 mmHg by the indirect tail-cuff method at an oral screening dose of 50 mg/Kg. It is filed as functional, Blood.

Regarding `CN1C(c2ccccc2)=Nc2ccccc2CC1c1ccccc1.Cl` (configuration not stated), the BP with Rattus norvegicus [1] is recorded as -56 mmHg.
Molecule `N=C(N)NCCN1CCCCCCC1` [GUANETHIDINE] yielded a BP in the test with Rattus norvegicus [2] of -20 mmHg.

Source of the values: ChEMBL document CHEMBL1122626, “(+/-)-4-Aryl-4,5-dihydro-3H-1,3-benzodiazepines. 3. 2-Phenyl and 2-amino analogues as potential antihypertensive agents” (1984).
